Values after ≈ are worked out from the molar mass of the structure shown. Where two headings read alike, the source gives them in different places.
Assays:
[1] = test system: clinically isolated 26 strains of P. acnes; assay: MIC, agar plate dilution, Test Example 10; type: cell-based, Propionibacterium acnes; settings: reference data, not obtained through tests simultaneously carried out
[2] = test system: Staphylococcus spp. (44 Strains); assay: MIC, agar plate dilution, Test Example 22; type: cell-based
From the text: Strains Used: There were used 44 strains of Staphylococcus spp. […] Sterilized distilled water was used in the dilution of the solution.

[3] = Cutibacterium acnes, read-out: MIC50
[4] = Cutibacterium acnes, read-out: MIC80
[5] = Staphylococcus, read-out: MIC50
[6] = Staphylococcus, read-out: MIC80

SMILES | MIC50 [1, 3] [µg/mL] | MIC80 [1, 4] [µg/mL] | MIC50 [2, 5] [µg/mL] | MIC80 [2, 6] [µg/mL] | MIC50 [1] [µg/mL] | MIC80 [1] [µg/mL] | MIC50 [2] [µg/mL] | MIC80 [2] [µg/mL]
CN(C)[C@@H]1C(=O)C(C(N)=O)=C(O)[C@@]2(O)C(=O)C3=C(O)c4c(O)cccc4[C@@](C)(O)[C@H]3C[C@@H]12 [TC, Tetracycline] | – | – | – | – | 0.19 (≈ 0.428 µM) | 0.19 (≈ 0.428 µM) | 0.39 (≈ 0.878 µM) | 25 (≈ 56.3 µM)
CCC[C@@H]1C[C@@H](C(=O)N[C@@H]([C@H]2O[C@H](SC)[C@H](O)[C@@H](O)[C@H]2O)[C@H](C)Cl)N(C)C1 [CLDM, Clindamycin] | – | – | – | – | 0.10 (≈ 0.235 µM) | 0.19 (≈ 0.447 µM) | 0.10 (≈ 0.235 µM) | >100

Continued, in another order:

MIC50 [1, 3] [µg/mL] | MIC80 [1, 4] [µg/mL] | MIC50 [2, 5] [µg/mL] | MIC80 [2, 6] [µg/mL] | SMILES | MIC50 [1] [µg/mL] | MIC80 [1] [µg/mL] | MIC50 [2] [µg/mL] | MIC80 [2] [µg/mL]
0.05 (≈ 0.109 µM) | 0.1 (≈ 0.219 µM) | 0.1 (≈ 0.219 µM) | 0.1 (≈ 0.219 µM) | CN(C)c1ccc(O)c2c1C[C@H]1C[C@H]3[C@H](N(C)C)C(O)=C(C(N)=O)C(=O)[C@@]3(O)C(O)=C1C2=O [MINO, Minocycline] | – | – | – | –
0.39 (≈ 1.08 µM) | 0.39 (≈ 1.08 µM) | 0.39 (≈ 1.08 µM) | 0.78 (≈ 2.16 µM) | CC1COc2c(N3CCN(C)CC3)c(F)cc3c(=O)c(C(=O)O)cn1c23 (centres unmarked) [OFLX, Ofloxacin] | – | – | – | –
0.19 (≈ 0.527 µM) | 0.19 (≈ 0.527 µM) | 0.05 (≈ 0.139 µM) | 0.78 (≈ 2.16 µM) | CC1CCc2c(N3CCC(O)CC3)c(F)cc3c(=O)c(C(=O)O)cn1c23 (centres unmarked) [NDFX, Nadifloxacin] | – | – | – | –

Source: US20090130236A1, “ANTI-MICROBIAL AGENT AND ANTI-MICROBIAL COMPOSITION” (Hououdou Co., Ltd., priority 2002, published 2009)
